Data reported in patent US12637469B2, “1H-pyrazole derivative and application thereof as dual target inhibitor of Syk and VEGFR2” (Ocumension Therapeutics (Suzhou) Co., Ltd., priority 2020, dated 2026).

What was measured:
Assay in all cases: Inhibition of cytochrome P450 enzymes in human liver microsomes (LC-MS/MS)
Assay type in all cases: in vitro ADME
CYP1A2 = biological target: T1, CYP1A2 (Homo sapiens, UniProt P05177)
T1 construct: human liver microsome working solution was prepared; from tissue; host or cells: human liver microsomes
T1 sequence (P05177 whole entry): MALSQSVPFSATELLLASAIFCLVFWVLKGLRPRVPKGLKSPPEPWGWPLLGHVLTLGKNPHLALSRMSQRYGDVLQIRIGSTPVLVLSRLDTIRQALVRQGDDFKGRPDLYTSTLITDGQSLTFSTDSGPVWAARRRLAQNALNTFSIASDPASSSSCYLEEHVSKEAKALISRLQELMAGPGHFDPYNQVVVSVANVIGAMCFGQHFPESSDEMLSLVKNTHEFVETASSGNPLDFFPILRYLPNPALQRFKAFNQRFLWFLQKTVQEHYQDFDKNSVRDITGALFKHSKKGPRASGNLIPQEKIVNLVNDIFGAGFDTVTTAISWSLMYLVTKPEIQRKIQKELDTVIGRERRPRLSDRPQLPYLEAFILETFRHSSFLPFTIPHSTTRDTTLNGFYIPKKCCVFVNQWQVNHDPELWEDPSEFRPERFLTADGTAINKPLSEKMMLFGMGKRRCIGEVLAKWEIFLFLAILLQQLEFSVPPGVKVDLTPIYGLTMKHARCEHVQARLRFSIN
Experimental: (§1) In order to investigate the activity of the compound on human liver microsomal CYP450 enzyme, Liquid Chromatography-Mass Spectrometry/Mass Spectrometry (LC-MS/MS) method was used in this study to determine the inhibitory effect of compound 1 on five main subtypes (CYP1A2, 2C9, 2C19, 2D6, 3A4) of human hepatocyte CYP450 enzyme, and compound screening and analysis were conducted using IC50 value as the indicator.
(§2) • 1) A test compound and a standard inhibitor working solution (100×) were prepared; • 2) microsomes were taken out of a −80° C. freezer, thawed on ice, labeled with the date, and put back in the freezer immediately after use; • 3) 20 microliters of matrix solution was added to the corresponding wells; • 4) 20 microliters of phosphate buffered saline was added to the blank wells; • 5) 2 microliters of the test compound and positive control working solution were added to the corresponding wells; • 6) 2 microliters of solvent was added to each of the inhibitor-free wells and the blank wells; • 7) human liver microsome working solution was prepared; • 8) 158 microliters of HLM working solution was added to all wells of the incubation plate; • 9) the plate was heated in a 37° C. water bath for about 10 minutes; • 10) NADPH cofactor solution was prepared; • 11) 20 microliters of NADPH cofactor was added to all of the incubation wells; • 12) all CYPs were subjected to mixed culture in a 37° C. water bath for 10 minutes; • 13) at a certain point in time, the reaction was stopped by adding 400 microliters of cold solution (200 ng/mL of tolbutamide in acetonitrile and 200 ng/mL of Labetalol in acetonitrile); • 14) the samples were centrifuged at 4000 rpm for 20 minutes to precipitate proteins; • 15) 200 microliters of supernatant was transferred into 100 microliters of high performance liquid chromatography water, and shaked for 10 minutes; • 16) LC/MS/MS analysis was started.

CYP2C9 = biological target: T2, CYP2C9 (Homo sapiens, UniProt P11712)
T2 construct: human liver microsome working solution was prepared; from tissue; host or cells: human liver microsomes
T2 sequence (P11712 whole entry): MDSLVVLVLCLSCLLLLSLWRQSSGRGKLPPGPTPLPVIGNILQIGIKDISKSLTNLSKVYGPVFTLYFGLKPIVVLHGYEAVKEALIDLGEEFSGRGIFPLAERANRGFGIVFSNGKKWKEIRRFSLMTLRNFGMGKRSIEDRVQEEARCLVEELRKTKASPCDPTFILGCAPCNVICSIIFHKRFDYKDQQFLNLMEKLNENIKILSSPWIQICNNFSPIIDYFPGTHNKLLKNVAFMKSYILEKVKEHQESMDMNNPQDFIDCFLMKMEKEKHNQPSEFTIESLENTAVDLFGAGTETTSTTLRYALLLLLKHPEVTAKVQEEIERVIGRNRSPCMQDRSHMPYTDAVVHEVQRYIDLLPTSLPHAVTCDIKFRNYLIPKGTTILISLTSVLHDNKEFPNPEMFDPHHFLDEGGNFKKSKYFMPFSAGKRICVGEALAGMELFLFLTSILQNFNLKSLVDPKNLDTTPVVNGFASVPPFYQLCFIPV
Experimental: as §1, §2

CYP2D6 = biological target: T3, CYP2D6 (Homo sapiens, UniProt P10635)
T3 construct: human liver microsome working solution was prepared; from tissue; host or cells: human liver microsomes
T3 sequence (P10635 whole entry): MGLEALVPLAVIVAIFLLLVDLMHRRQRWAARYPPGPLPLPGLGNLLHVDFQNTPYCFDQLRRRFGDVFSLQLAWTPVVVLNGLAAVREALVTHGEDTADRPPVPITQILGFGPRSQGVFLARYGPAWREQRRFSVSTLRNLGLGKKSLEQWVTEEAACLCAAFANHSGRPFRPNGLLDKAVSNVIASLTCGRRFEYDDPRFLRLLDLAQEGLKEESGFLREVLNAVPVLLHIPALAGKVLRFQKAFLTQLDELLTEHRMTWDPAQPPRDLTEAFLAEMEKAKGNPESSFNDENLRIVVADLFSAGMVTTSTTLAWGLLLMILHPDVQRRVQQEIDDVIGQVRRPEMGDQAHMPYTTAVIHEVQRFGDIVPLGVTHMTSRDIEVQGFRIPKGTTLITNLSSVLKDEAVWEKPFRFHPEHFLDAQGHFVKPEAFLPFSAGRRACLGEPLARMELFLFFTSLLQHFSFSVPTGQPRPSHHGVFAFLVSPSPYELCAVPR
Experimental: as §1, §2

CYP3A4 = biological target: T4, CYP3A4 (Homo sapiens, UniProt P08684)
T4 construct: human liver microsome working solution was prepared; from tissue; host or cells: human liver microsomes
T4 sequence (P08684 whole entry): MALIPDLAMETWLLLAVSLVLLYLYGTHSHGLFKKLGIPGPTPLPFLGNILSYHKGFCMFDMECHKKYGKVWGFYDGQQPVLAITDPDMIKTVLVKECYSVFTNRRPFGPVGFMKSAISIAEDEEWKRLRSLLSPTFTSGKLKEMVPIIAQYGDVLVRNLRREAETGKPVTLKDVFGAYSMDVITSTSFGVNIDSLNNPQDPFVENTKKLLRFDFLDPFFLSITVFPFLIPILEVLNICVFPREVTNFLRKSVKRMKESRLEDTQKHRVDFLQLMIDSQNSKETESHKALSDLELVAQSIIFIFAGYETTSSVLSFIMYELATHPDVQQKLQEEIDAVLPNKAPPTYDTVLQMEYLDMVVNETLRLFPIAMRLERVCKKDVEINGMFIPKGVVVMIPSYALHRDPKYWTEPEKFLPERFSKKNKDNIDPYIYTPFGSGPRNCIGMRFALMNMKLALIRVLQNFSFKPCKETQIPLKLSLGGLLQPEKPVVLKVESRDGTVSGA
Experimental: as §1, §2

- IC50 (CYP1A2): > 50 nM
- IC50 (CYP2C9): > 50 nM
- IC50 (CYP2D6): > 50000 nM
- IC50 (CYP3A4): > 50 nM
SMILES: c1cn2c(n1)c(Nc1ccc(N3CCOCC3)cc1)nc1ccc(-c3cn[nH]c3)cc12 [Compound 1]
